The source of these data is patent US11590116B2 (THERAVANCE BIOPHARMA R&D IP, LLC, priority 2019, dated 2023).

Assay [1] has as its target T1, recombinant human ALK5 (TGF-βR1) protein (Homo sapiens, UniProt P36897).
T1 construct: purchased Life Technologies PR9075A
T1 sequence (P36897 34-503): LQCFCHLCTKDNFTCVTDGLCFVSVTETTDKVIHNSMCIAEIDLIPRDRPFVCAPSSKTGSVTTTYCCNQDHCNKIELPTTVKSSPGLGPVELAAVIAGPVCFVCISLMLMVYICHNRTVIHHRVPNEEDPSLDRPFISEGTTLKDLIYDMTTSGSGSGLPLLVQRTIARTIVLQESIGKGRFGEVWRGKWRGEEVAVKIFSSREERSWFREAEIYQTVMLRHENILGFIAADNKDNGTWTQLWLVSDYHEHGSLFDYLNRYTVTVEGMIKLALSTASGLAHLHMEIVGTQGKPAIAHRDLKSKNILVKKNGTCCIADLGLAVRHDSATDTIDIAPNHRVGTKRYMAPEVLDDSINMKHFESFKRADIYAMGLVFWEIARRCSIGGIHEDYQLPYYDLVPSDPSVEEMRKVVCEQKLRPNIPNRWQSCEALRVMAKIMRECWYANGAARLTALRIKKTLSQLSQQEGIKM
The assay can be described thus: Biochemical ALK5 (TGF-βR1) assay to measure pKi (LANCE Ultra ULight kinase assay). The following applies: apparent pKi from pIC50 by Cheng-Prusoff, read-out: ALK5 pKi (converted). An outline of the steps: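 Compounds (10 μM to 25 pM) were preincubated 60 min at room temperature with enzyme, then reactions were started with ATP (125 μM stock, 5× final) and run 60 min at 37 °C. EDTA-containing Eu-anti-phospho-Topo IIα (Thr1342) antibody stopped the reaction; TR-FRET read at 665 nm. pIC50 from 4-parameter fit, converted to pKi via Cheng-Prusoff.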
Background: Time-resolved FRET reads energy transfer from a long-lived donor to a nearby acceptor.

For assay [2], the system named is TGF-β-stimulated SMAD3 phosphorylation in BEAS-2B cells. The assay can be described thus: Cellular ALK5 potency assay, inhibition of TGF-β stimulated pSMAD3 formation in BEAS-2B cells. In kind it is cell-based. The following applies: Homo sapiens; inhibition of TGF-β stimulated pSMAD3 formation, BEAS-2B cells; read-out: BEAS2B pIC50 (converted). A digest of the protocol: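 SMAD3 phosphorylation was measured by AlphaLISA after 30 min TGF-β stimulation (10 ng/mL final) of BEAS-2B cells preincubated 1 h with compound at 37 °C. Results given as pIC50.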

Turning to `CN[C@H]1CC[C@H](OC(=O)c2cnc3ccc(-c4nc[nH]c4-c4cccc(C)n4)cc3c2)CC1` [Compound 1129, [4-(methylamino)cyclohexyl] 6-[5-(6-methyl-2-pyridyl)-1H-imidazol-4-yl]quinoline-3-carboxylate], the Ki in assay [1] is 0.0398 to 0.316 nM. In assay [2], the IC50 was 25.1 to 158 nM.
In the case of `Cc1cccc(-c2n[nH]cc2-c2ccc3ncc(N(C)C)cc3n2)n1` [Compound 59, N,N-dimethyl-6-[3-(6-methyl-2-pyridyl)-1H-pyrazol-4-yl]-1,5-naphthyridin-3-amine], in assay [1], the Ki was 0.0398 to 0.316 nM. Moreover, the IC50 in assay [2] is less than 20 nM.
Taken in the same sequence, the figures for `Cc1cccc(-c2[nH]cnc2-c2ccc3ncc(NCCN4CCN(C(C)C)CC4)cc3n2)n1` [Compound 104, N-(2-(4-isopropylpiperazin-1-yl)ethyl)-6-(5-(6-methylpyridin-2-yl)-1H-imidazol-4-yl)-1,5-naphthyridin-3-amine] were 0.0398 to 0.316 nM and 25.1 to 158 nM.
On to `Cc1cccc(-c2n[nH]cc2-c2ccc3nccc(CNCCCN4CCOCC4)c3n2)n1` [Compound 815, N-[[6-[3-(6-methyl-2-pyridyl)-1H-pyrazol-4-yl]-1,5-naphthyridin-4-yl]methyl]-3-morpholino-propan-1-amine], for which the Ki in assay [1] is 0.0398 to 0.316 nM. The IC50 in assay [2] is 25.1 to 158 nM.
Consider `Cc1cccc(-c2[nH]cnc2-c2ccc3ncc(-c4ccc(C(=O)OCCN5CC[C@@H](N)C5)cn4)cc3c2)n1` [Compound 1167, 2-[(3R)-3-aminopyrrolidin-1-yl]ethyl 6-[6-[5-(6-methyl-2-pyridyl)-1H-imidazol-4-yl]-3-quinolyl]pyridine-3-carboxylate], for which the Ki in assay [1] was 0.0398 to 0.316 nM. Also, the IC50 in assay [2] is 25.1 to 158 nM.
As to `Cc1cccc(-c2n[nH]cc2-c2ccc3ncc(-c4cc[nH]n4)cc3n2)n1` [Compound 612, 2-[3-(6-methyl-2-pyridyl)-1H-pyrazol-4-yl]-7-(1H-pyrazol-3-yl)-1,5-naphthyridine], the Ki in assay [1] was 0.0398 to 0.316 nM. For the same compound, the IC50 in assay [2] is 25.1 to 158 nM.
As for `Cc1nc(-c2n[nH]cc2-c2ccc3ncc(-c4cc5c(nn4)CCNC5)cc3n2)ccc1F` [Compound 289, 3-[6-[3-(5-fluoro-6-methyl-2-pyridyl)-1H-pyrazol-4-yl]-1,5-naphthyridin-3-yl]-5,6,7,8-tetrahydropyrido[4,3-c]pyridazine], in assay [1], the Ki was 0.398 to 3.16 nM. Also, the IC50 in assay [2] is 200 to 1260 nM.
Regarding `CNCCn1cc(-c2cnc3ccc(-c4nnn(Cc5ccccc5)c4-c4cccc(C)n4)cc3c2)cn1` [Compound 314, 2-[4-[6-[1-benzyl-5-(6-methyl-2-pyridyl)triazol-4-yl]-3-quinolyl]pyrazol-1-yl]-N-methyl-ethanamine], the Ki in assay [1] was 3.98 to 31.6 nM. In addition, the IC50 in assay [2] was 1580 to 10000 nM.
For `Cc1cccc(-c2[nH]cnc2-c2ccc3ncc(-c4csc(C(=O)OC[C@H]5CCCCN5)c4)cc3c2)n1` [Compound 1207, [(2R)-2-piperidyl]methyl 4-[6-[5-(6-methyl-2-pyridyl)-1H-imidazol-4-yl]-3-quinolyl]thiophene-2-carboxylate] the same measures were less than 0.0316 nM and 25.1 to 158 nM.
For `COC[C@H]1CN(CCNc2cnc3ccc(-c4nc[nH]c4-c4cccc(C)n4)cc3c2)CCN1` [Compound 37, N-[2-[(3R)-3-(methoxymethyl)piperazin-1-yl]ethyl]-6-[5-(6-methyl-2-pyridyl)-1H-imidazol-4-yl]quinolin-3-amine], the Ki in assay [1] is 0.0398 to 0.316 nM. The IC50 in assay [2] was 25.1 to 158 nM.
For the compound `Cc1cccc(-c2n[nH]cc2-c2ccc3ncc(NC(=O)CN4CCN(C(C)C)CC4)cc3n2)n1` [Compound 625, 2-(4-isopropylpiperazin-1-yl)-N-[6-[3-(6-methyl-2-pyridyl)-1H-pyrazol-4-yl]-1,5-naphthyridin-3-yl]acetamide], the Ki in assay [1] is 0.0398 to 0.316 nM. Further, the IC50 in assay [2] was 25.1 to 158 nM.
For `CNCCn1cc(-c2cnc3ccc(-c4c(-c5cccc(C)n5)[nH]c5ncccc45)cc3c2)cn1` [Compound 306, N-methyl-2-(4-(6-(2-(6-methylpyridin-2-yl)-1H-pyrrolo[2,3-b]pyridin-3-yl)quinolin-3-yl)-1H-pyrazol-1-yl)ethan-1-amine] the same measures were less than 0.0316 nM and 25.1 to 158 nM.
Taken in the same sequence, the figures for `Cc1cccc(-c2n[nH]cc2-c2ccc3nccc(C(=O)NCCCCCCNC(=O)[C@@H]4CCCN4C(=O)CN4CCOCC4)c3n2)n1` (racemic) [Compound 809, 6-[3-(6-methyl-2-pyridyl)-1H-pyrazol-4-yl]-N-[6-[[rac-(2S)-1-(2-morpholinoacetyl)pyrrolidine-2-carbonyl]amino]hexyl]-1,5-naphthyridine-4-carboxamide] were 0.398 to 3.16 nM and 200 to 1260 nM.
Turning to `Cc1cccc(-c2n[nH]cc2-c2ccc3ncc(N4C[C@@H](C)NC[C@H]4C)cc3n2)n1` (racemic) [Compound 462, 2-[3-(6-methyl-2-pyridyl)-1H-pyrazol-4-yl]-7-[rac-(2R,5R)-2,5-dimethylpiperazin-1-yl]-1,5-naphthyridine], the Ki in assay [1] is 0.398 to 3.16 nM. Also, the IC50 in assay [2] is 25.1 to 158 nM.
`Cc1cccc(-c2[nH]cnc2-c2ccc3ncc(NCCN4CCCC4(C)C)cc3c2)n1` [Compound 56, N-[2-(2,2-dimethylpyrrolidin-1-yl)ethyl]-6-[5-(6-methyl-2-pyridyl)-1H-imidazol-4-yl]quinolin-3-amine]: the Ki in assay [1] is less than 0.0316 nM. The IC50 in assay [2] was 25.1 to 158 nM.
For `Cc1cccc(-c2[nH]cnc2-c2ccc3ncc(-c4csc(C(=O)OC[C@@H]5CCCN5)c4)cc3c2)n1` [Compound 1183, [(2S)-pyrrolidin-2-yl]methyl 4-[6-[5-(6-methyl-2-pyridyl)-1H-imidazol-4-yl]-3-quinolyl]thiophene-2-carboxylate] the same measures were less than 0.0316 nM and 25.1 to 158 nM.
With `CNCCN1CCCN(c2cnc3ccc(-c4c[nH]nc4-c4cccc(C)n4)nc3c2)CC1` [Compound 311, N-methyl-2-[4-[6-[3-(6-methyl-2-pyridyl)-1H-pyrazol-4-yl]-1,5-naphthyridin-3-yl]-1,4-diazepan-1-yl]ethanamine], the Ki in assay [1] is 0.0398 to 0.316 nM. Besides, the IC50 in assay [2] is 200 to 1260 nM.
`CNCCn1cc(-c2cnc3ccc(-c4c(-c5cccc(C)n5)nnn4CC(=O)O)nc3c2)cn1` [Compound 630, 2-[5-[7-[1-[2-(methylamino)ethyl]pyrazol-4-yl]-1,5-naphthyridin-2-yl]-4-(6-methyl-2-pyridyl)triazol-1-yl]acetic acid]: the Ki in assay [1] is 0.398 to 3.16 nM. In assay [2], the IC50 is 1580 to 10000 nM.
As for `Cc1cccc(-c2[nH]cnc2-c2ccc3ncc(-c4ccc5c(c4)CNC5)cc3c2)n1` [Compound 699, 3-isoindolin-5-yl-6-[5-(6-methyl-2-pyridyl)-1H-imidazol-4-yl]quinoline], the Ki in assay [1] is less than 0.0316 nM. The IC50 in assay [2] is less than 20 nM.
For `Cc1cccc(-c2[nH]cnc2-c2ccc3ncc(-c4ccc(C(=O)O[C@H]5CCNC5)nc4)cc3c2)n1` [Compound 1122, [(3S)-pyrrolidin-3-yl] 5-[6-[5-(6-methyl-2-pyridyl)-1H-imidazol-4-yl]-3-quinolyl]pyridine-2-carboxylate] the same measures were 0.0398 to 0.316 nM and 200 to 1260 nM.
`Cc1cccc(-c2[nH]cnc2-c2ccc3ncc(-c4cc(C(=O)O)cs4)cc3c2)n1` [Compound 1082, 5-[6-[5-(6-methyl-2-pyridyl)-1H-imidazol-4-yl]-3-quinolyl]thiophene-3-carboxylic acid]: the Ki in assay [1] was less than 0.0316 nM. Besides, in assay [2], the IC50 is 200 to 1260 nM.
As to `Cc1cccc(-c2nnn(Cc3ccccc3)c2-c2ccc3ncc(N4CCC(N(C)C)C4)cc3n2)n1` (racemic) [Compound 331, rac-(3S)-1-[6-[3-benzyl-5-(6-methyl-2-pyridyl)triazol-4-yl]-1,5-naphthyridin-3-yl]-N,N-dimethyl-pyrrolidin-3-amine], in assay [1], the Ki was 0.0398 to 0.316 nM. Moreover, the IC50 in assay [2] is 200 to 1260 nM.
In the case of `Cc1cccc(-c2n[nH]cc2-c2ccc3nccc(-c4cn[nH]c4)c3c2)n1` [Compound 866, 6-[3-(6-methyl-2-pyridyl)-1H-pyrazol-4-yl]-4-(1H-pyrazol-4-yl)quinoline], in assay [1], the Ki was less than 0.0316 nM. In assay [2], the IC50 was 25.1 to 158 nM.
Regarding `Cc1cccc(-c2[nH]cnc2-c2ccc3ncc(C4=C[C@@H](C)N[C@H](C)C4)cc3c2)n1` [Compound 8, 3-[(2R,6R)-2,6-dimethyl-1,2,3,6-tetrahydropyridin-4-yl]-6-[5-(6-methyl-2-pyridyl)-1H-imidazol-4-yl]quinoline], in assay [1], the Ki was 0.0398 to 0.316 nM. For the same compound, the IC50 in assay [2] was 25.1 to 158 nM.
Taken in the same sequence, the figures for `Cc1cccc(-c2[nH]nnc2-c2ccc3ncc(N4CCNCC4)cc3n2)n1` [Compound 479, 2-[5-(6-methyl-2-pyridyl)-1H-triazol-4-yl]-7-piperazin-1-yl-1,5-naphthyridine] were 0.398 to 3.16 nM and 200 to 1260 nM.
